For the assay, the target named is Isoform Bcl-X(L) of Bcl-2-like protein 1 (Bcl-xL) (Homo sapiens, UniProt Q07817).
Sequence of Isoform Bcl-X(L) of Bcl-2-like protein 1 (Bcl-xL) (Q07817 whole entry G70A, canonical isoform): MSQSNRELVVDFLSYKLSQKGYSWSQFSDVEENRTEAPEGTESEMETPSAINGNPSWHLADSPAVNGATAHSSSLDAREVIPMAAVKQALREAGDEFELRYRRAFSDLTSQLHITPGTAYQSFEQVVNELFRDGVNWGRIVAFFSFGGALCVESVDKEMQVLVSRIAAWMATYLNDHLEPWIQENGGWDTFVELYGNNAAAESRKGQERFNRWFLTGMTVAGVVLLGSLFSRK

Turning to `O=C(NS(=O)(=O)c1cc([N+](=O)[O-])c2cnn(CC3CCOCC3)c2c1)c1ccc(N2CCN(CC3=C(c4ccc(Cl)cc4)CC4(CCC4)CC3)CC2)cc1Oc1cnc2[nH]ccc2c1` [US10221174, Compound 62], the IC50 was found to be 4 nM. For `O=C(NS(=O)(=O)c1cc([N+](=O)[O-])c2cnn(C3CCOCC3)c2c1)c1ccc(N2CCN(CC3=C(c4ccc(Cl)cc4)CC4(CCC4)CC3)CC2)cc1Oc1cnc2[nH]ccc2c1` [US10221174, Compound 64] the value was 8.7 nM.

As usually defined, the IC50 is the point on the concentration scale where inhibition reaches its midpoint. Lower therefore signals higher potency.
